Measured values published in publication PMC10762035, “Molecular basis of human trace amine-associated receptor 1 activation” (Nature Communications, 2024).
Residue numbers refer to the chain shown, from its start. Where “and” joins values, the source holds several entries; their conditions need not be identical. Equal entries are not always repeated.

Experiments:
[1] = target: T1, hTA1 C88/178S (Homo sapiens, UniProt Q96RJ0, C178S/C88S); experiment: GloSensor cAMP accumulation assay, C88S/C178S double mutant; format: cell-based; conditions: for Normalized Luminescence Counts (N=2): log[Compound], single replicate values
T1 construct: expressed in transfected cells; host or cells: HEK293T
T1 sequence (Q96RJ0 1-339 C88S/C178S): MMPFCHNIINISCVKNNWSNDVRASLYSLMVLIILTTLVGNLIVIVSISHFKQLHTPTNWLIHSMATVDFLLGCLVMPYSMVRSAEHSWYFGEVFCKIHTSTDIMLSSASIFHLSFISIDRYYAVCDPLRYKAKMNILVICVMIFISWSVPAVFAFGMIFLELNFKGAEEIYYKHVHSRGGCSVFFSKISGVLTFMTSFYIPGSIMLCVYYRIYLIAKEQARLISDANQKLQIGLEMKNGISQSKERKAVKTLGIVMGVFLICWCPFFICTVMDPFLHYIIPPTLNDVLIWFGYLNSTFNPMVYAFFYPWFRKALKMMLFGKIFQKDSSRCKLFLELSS

[2] = target: T2, hTA1 T271A (Homo sapiens, UniProt Q96RJ0, T271A); experiment: GloSensor cAMP accumulation assay, T271A mutant; format: cell-based
T2 construct: expressed in transfected cells; host or cells: HEK293T
T2 sequence (Q96RJ0 1-339 T271A): T1 sequence (Q96RJ0 1-339 C88S/C178S) with S88C, S178C, T271A

[3] = target: T3, hTA1 C5S (Homo sapiens, UniProt Q96RJ0, C5S); experiment: GloSensor cAMP accumulation assay, C5S mutant; format: cell-based; conditions: for C5S - Normalized Luminescence Counts (N=2): log[Compound], single wells
T3 construct: expressed in transfected cells; host or cells: HEK293T
T3 sequence (Q96RJ0 1-339 C5S): T1 sequence (Q96RJ0 1-339 C88S/C178S) with C5S, S88C, S178C

[4] = target: T4, β2AR-Nterm-hTA1-F112^3.41W (CryoEM Construct) (Homo sapiens, UniProt Q96RJ0, F112W); experiment: GloSensor cAMP accumulation assay, cryoEM construct; format: cell-based;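 further: cells transiently co-transfected with the receptor construct and GloSensor cAMP biosensor, luminescence read after 30 min compound exposure at room temperature in the dark as cAMP accumulation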;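 on Normalized Luminescence Counts (N=2): normalized to the maximum response of β-PEA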
T4 construct: FLAG (N); 10xHis (N); TEV protease site (N); expressed in transfected cells; host or cells: HEK293T
T4 sequence (Q96RJ0 with tags, fused parts or gaps F112W): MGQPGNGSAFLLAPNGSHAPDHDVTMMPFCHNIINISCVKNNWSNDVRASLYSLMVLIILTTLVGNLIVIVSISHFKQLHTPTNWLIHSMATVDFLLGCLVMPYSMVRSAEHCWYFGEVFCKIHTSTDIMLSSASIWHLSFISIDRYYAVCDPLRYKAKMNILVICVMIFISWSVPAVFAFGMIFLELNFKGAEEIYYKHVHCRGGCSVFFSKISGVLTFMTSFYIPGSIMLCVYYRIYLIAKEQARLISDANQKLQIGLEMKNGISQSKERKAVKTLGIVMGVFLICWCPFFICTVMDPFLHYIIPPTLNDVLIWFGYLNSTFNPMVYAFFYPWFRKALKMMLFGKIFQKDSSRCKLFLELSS

[5] = target: T5, hTA1 T194A (Homo sapiens, UniProt Q96RJ0, T194A); experiment: GloSensor cAMP accumulation assay, T194A mutant; conditions: for cAMP accumulation response, individual replicate values of the concentration-response curve: hTA1 T194A, log[Agonist], Supplementary Figure 5 source data
T5 sequence (Q96RJ0 1-339 T194A): T1 sequence (Q96RJ0 1-339 C88S/C178S) with S88C, S178C, T194A

[6] = C88S, C178S, each row is one independent experiment, 3 replicates
[7] = Cryo EM Construct, mean of each independent experiment (3 replicates)

SMILES: NCCc1ccc(Oc2ccc(O)cc2)c(I)c1 [T1AM, 3-iodothyronamine]
- Span ± SEM (Emax normalized to β-PEA) ([1]; C88/178S, n=2): 98.9 ± 13.16
- pEC50 ± SEM ([1]; C88/178S, n=2): 5.96 ± 0.05
- EC50 ([1]; C88/178S, n=2, read-out: EC50): 1090 nM
- pEC50 values, Mean [1, 6]: 6.084 and 5.841
- ΔEmax values (each mutant value - WT average), Mean [1, 6]: 15.2915 and 41.6133
- ΔpEC50 values (each mutant value - WT average), Mean [1, 6]: -0.04547 and -0.2881
- Normalized Luminescence Counts (N=2) ([1]; C88S, C178S, M = -5): 73.2176 and 97.3588 and 72.5957 and 103.925 and 90.4821 and 104.378
- Normalized Luminescence Counts (N=2) ([1]; C88S, C178S, M = -5.522): 67.1681 and 64.6805 and 64.737 and 67.222 and 55.8941 and 86.253
- Normalized Luminescence Counts (N=2) ([1]; C88S, C178S, M = -6): 53.4297 and 44.4403 and 51.5074 and 51.9671 and 38.3735 and 50.6077
- Normalized Luminescence Counts (N=2) ([1]; C88S, C178S, M = -6.522): 23.5782 and 23.1825 and 20.8079 and 20.0978 and 14.6604 and 27.0456
- Normalized Luminescence Counts (N=2) ([1]; C88S, C178S, M = -7): 11.3097 and 9.048 and 12.1012 and 6.655 and 6.504 and 10.7333
- Normalized Luminescence Counts (N=2) ([1]; C88S, C178S, M = -7.522): 2.433 and 2.8292 and 3.225 and 0.6137 and -1.652 and -0.1415
- Normalized Luminescence Counts (N=2) ([1]; C88S, C178S, M = -8): 0.6808 and 0.7373 and 1.19 and -0.1415 and -0.2925 and 0.9158
- Normalized Luminescence Counts (N=2) ([1]; C88S, C178S, M = -8.522): 0.7373 and 0.7939 and 0.285 and -1.501 and 0.1606 and -0.4436
- Normalized Luminescence Counts (N=2) ([1]; C88S, C178S, M = -9): 0.4547 (2×) and 1.981 and -1.199 and -2.558 and -1.652
- Normalized Luminescence Counts (N=2) ([1]; C88S, C178S, M = -9.522): 0.285 (2×) and 0.2285 and -0.4436 and -2.105 and -1.199
- Normalized Luminescence Counts (N=2) ([1]; C88S, C178S, M = -10): 1.19 and 0.0589 and 2.2073 and 0.4627 and 0.3116 and -0.1415
- Normalized Luminescence Counts (N=2) ([1]; C88S, C178S, M = -10.522): 1.077 and 0.285 and 1.1331 and 0.1606 and -2.86 and -1.652
- Normalized Luminescence Counts (N=2) ([1]; C88S, C178S, M = -11): 1.529 and 0.9635 and 0.2285 and -1.048 and -1.35 and -1.652
- Normalized Luminescence Counts (N=2) ([1]; C88S, C178S, M = -11.522): 1.19 and 1.246 and 0.4547 and -0.5946 and -1.199 (2×)
- Normalized Luminescence Counts (N=2) ([1]; C88S, C178S, M = -12): 0.3981 and 0.172 and 1.981 and -1.501 and -1.048 and -0.2925
- Normalized Luminescence Counts (N=2) ([1]; C88S, C178S, M = -12.522): 1.1331 and 2.773 and 1.19 and -0.1415 and -1.35 and -0.8967
- Emax values, Mean ([1]; C88S, C178S, normalized (β-PEA = 100), each row is one independent experiment, 3 replicates): 85.7378 and 112.06
- ΔpEC50 values (each mutant value - WT average), Mean ([2]; T271A mutant minus WT average, Figure 5B): -0.6347 and -0.7159
- pEC50 values, Mean ([2]; T271A mutant, Figure 5B, each row one independent experiment (3 replicates)): 5.495 and 5.413
- Emax values, Mean ([2]; T271A mutant, Figure 5B, β-PEA = 100, each row one independent experiment (3 replicates)): 41.9229 and 94.6558
- Span ± SEM (Emax normalized to β-PEA) ([2]; T271A, n=2): 68.29
- pEC50 ± SEM ([2]; T271A, n=2): 5.45 ± 0.03
- EC50 ([2]; T271A, n=2, read-out: EC50): 3520 nM
- Span ± SEM (Emax normalized to β-PEA) ([3]; C5S, n=2): 81.19 ± 8.03
- pEC50 ± SEM ([3]; C5S, n=2): 5.95 ± 0.04
- EC50 ([3]; C5S, n=2, read-out: EC50): 1110 nM
- pEC50 values, Mean ([3]; hTA1 C5S, mean of 3 replicates, one line per independent experiment): 6.184 and 5.721
- Emax values, Mean ([3]; hTA1 C5S, β-PEA = 100, mean of 3 replicates, one line per independent experiment): 73.1551 and 89.2227
- C5S - Normalized Luminescence Counts (N=2) ([3]; M = -5): 66.8501 and 72.156 and 68.5661 and 75.0127 and 63.7584 and 82.7458
- C5S - Normalized Luminescence Counts (N=2) ([3]; M = -5.522): 58.0446 and 60.9798 and 52.4226 and 59.2704 and 49.2589 and 55.9562
- ΔEmax values (each mutant value - WT average), Mean ([4]; Cryo EM Construct minus WT average): 57.4068 and 36.3707
- Emax values, Mean [4, 7]: -0.05087 and 0.4178
- pEC50 values, Mean [4, 7]: 6.078 and 6.547
- Normalized Luminescence Counts (N=2) ([4]; CryoEM Construct, log[Compound], M = -5, single replicates): 123.162 and 140.16 and 121.528 and 161.688
- Span ± SEM (Emax normalized to β-PEA) ([4]; CryoEM Construct, n=2): 115.44
- pEC50 ± SEM ([4]; CryoEM Construct, n=2): 6.3 ± 0.04
- EC50 ([4]; CryoEM Construct, n=2, read-out: EC50): 491 nM
- pEC50 values, Mean ([5]; T149A (so in the source), single experiments (3 replicates each)): 6.398 and 6.629 and 6.1942
- Emax values, Mean ([5]; T149A (so in the source), single experiments (3 replicates each), β-PEA = 100): 79.7491 and 146.858 and 73.3036
- EC50 ([5]; T194A): 235 nM
- Span ± SEM (Emax normalized to β-PEA) ([5]; T194A): 99.97
- pEC50 ± SEM ([5]; T194A): 6.41 ± 0.14
- cAMP accumulation response, individual replicate values of the concentration-response curve ([5]; M = -7.522): 6.402 and 2.253 and 5.81 and 6.799 and 11.9487 and 8.441
- cAMP accumulation response, individual replicate values of the concentration-response curve ([5]; M = -8): 0.08035 and -1.303 and -0.1172 and 2.714 and 2.536 and 3.069
- cAMP accumulation response, individual replicate values of the concentration-response curve ([5]; M = -8.522): -1.5 and -0.9074 and -0.5123 and 0.09457 and 0.1834 and 0.5385
- cAMP accumulation response, individual replicate values of the concentration-response curve ([5]; M = -9): -0.9074 and -1.303 (2×) and -1.015 and -1.326 and -0.3494
- cAMP accumulation response, individual replicate values of the concentration-response curve ([5]; M = -9.522): -2.093 (3×) and -0.6158 and -1.149 and -0.527
- cAMP accumulation response, individual replicate values of the concentration-response curve ([5]; M = -10): -1.698 and -1.303 and -1.105 and -0.749 (2×) and -0.4382
- cAMP accumulation response, individual replicate values of the concentration-response curve ([5]; M = -10.522): -1.5 and -1.303 and -1.698 and -0.8822 and -1.326 and -0.971
- cAMP accumulation response, individual replicate values of the concentration-response curve ([5]; M = -11): -1.303 and -0.9074 and -0.3148 and -0.4826 and -0.9266 and 0.5385
- cAMP accumulation response, individual replicate values of the concentration-response curve ([5]; M = -11.522): -1.303 (2×) and -0.9074 and -0.4382 and -0.7046 and -0.3938
- cAMP accumulation response, individual replicate values of the concentration-response curve ([5]; M = -12): -0.5123 and -1.105 and -1.5 and -0.4826 and -0.5714 and -0.6158
- cAMP accumulation response, individual replicate values of the concentration-response curve ([5]; M = -12.522): -0.3148 (2×) and -0.5123 and -0.5714 (2×) and -0.305
